The values that follow come from patent US7994399B2, “Methods for the production of stably transformed, fertile Zea mays plants” (BASF Plant Science GmbH, priority 2005, dated 2011).

For assay [1], the system named is Zea mays immature embryos. The assay can be described thus: Agrobacterium-mediated transformation of maize immature embryos, additives in the co-cultivation medium. It is filed as cell-based. The conditions noted are these: for Average TE (%) (transformation efficiency): L-cysteine added (+) to co-cultivation medium, split-cob design, drop inoculation. Here is the method:
Adjust pH media to 5.8 with 1 M NaOH. Weigh 4 g Sigma Purified Agar per bottle (8 g/L) and dispense 500 mL media per bottle, autoclave. When cooled add AgNO3 (stock at 15 mM) to a final concentration of 15 μM and L-cysteine (stock at 150 mg/ml) to a final concentration 300 mg/l. Pour into 100×20 mm Petri plates. Medium containing acetosyringone should be used freshly without long term storage.
Excised immature embryos are directly put on the co-cultivation medium (medium A-3) with the flat side down (scutellum upward). Each plate (20×100 mm plate) can hold up to 100 immature embryos. Put 5 μl of diluted Agrobacterium cell suspension to each immature embryo with a repeat pipettor. Remove excess moisture covering immature embryos by leaving the plate cover open in the hood for about 15 min. Seal the plate with 3M micropore tape and wrap with aluminum foil. Incubate the plate in the dark at 22° C. for 2 to 3 days. Take 3-5 immature embryos for GUS staining if a GUS construct is used to assess transient GUS expression.

The next assay has as its system XI12 mutant maize lines. The note with it: cited from earlier work.
In a further assay the test system is Maize XA17 mutants. The note with it: cited from earlier work.
Where [2] appears, read: addition to co-cultivation medium, BPS553×(HiIIA×A188) genotypes.

Marks after values point to notes of the source that are not given here.

Regarding `N[C@@H](CS)C(=O)O` [L-Cysteine], the “Effect on transformation efficiency” value is listed as “further enhances transformation efficiency” in assay [1] (setting [2]) and “significantly increasing transformation efficiency” in assay [1] (presence in the co-cultivation medium). Further, the “Average TE (%) (transformation efficiency)” value is given as 32.2* % in assay [1] (hybrid BPS553x(HillAxA188), 20 experiments) and 9.6* % in assay [1] (inbred BPS553, 27 experiments).
On to `CC(C)C1(C)N=C(c2nc3ccccc3cc2C(=O)O)NC1=O` (stereo not drawn) [imazaquin], for which the “Resistance or sensitivity of the plants to the herbicide” value in the assay on XI12 mutant maize lines is reported as “sensitive”. The “Resistance or tolerance of the plants to the herbicide” value with Maize XA17 mutants is “highly resistant”.
With `CCc1cnc(C2=NC(C)(C(C)C)C(=O)N2)c(C(=O)O)c1` (stereo not drawn) [imazethapyr], the “Resistance or sensitivity of the plants to the herbicide” value with XI12 mutant maize lines is “highly resistant”. For the same compound, the “Resistance or tolerance of the plants to the herbicide” value with Maize XA17 mutants is given as “highly resistant”.
Take `O=[N+]([O-])[O-].[Ag+]` [silver nitrate]: the “Effect on transformation efficiency” value in assay [1] (setting [2]) is “further enhances transformation efficiency”.
